Converted amounts (≈) assume the structure as drawn. Like-named read-outs stand apart in the source and are kept apart here.
Columns and labels:
[1] = tested on: N. gonorrhoeae; assay: Drug library screen against N. gonorrhoeae; assay type: cell-based, Neisseria gonorrhoeae; conditions: Johns Hopkins Clinical Compounds Library, MCE FDA-Approved Drug Library, Pharmakon library; killing in clinical range
From the text: To identify drugs capable of killing Neisseria gonorrhoeae, the Johns Hopkins Clinical Compounds Library (1514), the MCE FDA-Approved Drug Library (2441), and the Pharmakon library (1600) were screened against N. gonorrhoeae. Positive hits that are capable of killing Neisseria gonorrhoeae in clinical range were identified (itraconazole, ravuconazole and isavuconazole).

[2] = tested on: N. gonorrhoeae isolates; assay: MIC against panel of N. gonorrhoeae clinical isolates; assay type: cell-based, Neisseria gonorrhoeae; conditions: for MIC50 / MIC90: Neisseria gonorrhoeae; for MIC50: read-out: MIC50; for MIC90: read-out: MIC90
[3] = tested on: L. gasseri; assay: MIC against commensal vaginal Lactobacillus strains; assay type: cell-based, Lactobacillus gasseri; conditions: for MIC: Lactobacillus gasseri
From the text: (§1) N. gonorrhoeae pathogenesis greatly depends on colonization of the reproductive tract. One of the natural barriers of such colonization is an intact healthy microbiome. Species of lactobacilli present in the genitourinary tract play a significant role in hindering colonization by Neisseria(1).
(§2) A healthy vaginal microbiome that is dominated by Lactobacillus spp. is less susceptible to N. gonorrhoeae infection and other sexually transmitted diseases (STDs). […] We tested the activity of azoles against important members of healthy vaginal microbiota that inhibit N. gonorrhoeae colonization.

[4] = tested on: Enterococcus faecalis; assay: MIC against normal gut microbiota; assay type: cell-based; conditions: Enterococcus faecalis (1 strain)
From the text: (§3) Disrupting the intestinal microbiota using broad-spectrum antimicrobial therapy increases the susceptibility of hosts to C. difficile colonization.

[5] = tested on: Lactobacillus casei; assay: MIC against normal gut microbiota; assay type: cell-based; conditions: Lactobacillus casei (1 strain)
From the text: as §3

[6] = tested on: Bifidobacterium angulatum; assay: MIC against normal gut microbiota; assay type: cell-based; conditions: Bifidobacterium angulatum (1 strain)
From the text: as §3

[7] = tested on: Bacteroides fragilis; assay: MIC against normal gut microbiota; assay type: cell-based; conditions: Bacteroides fragilis (4 strains)
From the text: as §3

[8] = tested on: Lactobacillus rhamnosus; assay: MIC against normal gut microbiota; assay type: cell-based; conditions: Lactobacillus rhamnosus (1 strain)
From the text: as §3

[9] = tested on: Staphylococcus aureus; assay: MIC against normal gut microbiota; assay type: cell-based; conditions: Staphylococcus aureus (1 strain)
From the text: as §3

[10] = tested on: Bacteroides dorei; assay: MIC against normal gut microbiota; assay type: cell-based; conditions: Bacteroides dorei (2 strains)
From the text: as §3

[11] = tested on: Lactobacillus brevis; assay: MIC against normal gut microbiota; assay type: cell-based; conditions: Lactobacillus brevis (1 strain)
From the text: as §3

[12] = MIC against normal gut microbiota; assay type: cell-based
From the text: as §3

[13] = tested on: Escherichia coli; assay: MIC against normal gut microbiota; assay type: cell-based; conditions: Escherichia coli (1 strain)
From the text: as §3

[14] = tested on: Enterococcus faecium; assay: MIC against normal gut microbiota; assay type: cell-based; conditions: Enterococcus faecium (1 strain)
From the text: as §3

[15] = tested on: L. crispatus; assay: MIC against commensal vaginal Lactobacillus strains; assay type: cell-based, Lactobacillus crispatus; conditions: for MIC: Lactobacillus crispatus
From the text: as §1, §2

[16] = tested on: N. gonorrhoeae; assay: Female mouse model of N. gonorrhoeae genital tract infection; assay type: in vivo; conditions: N. gonorrhoeae FA1090, low dose 100 mg/kg orally
Description: FIG. 1—Efficacy of Ravuconazole one oral dose in a mouse model against N. gonorrhoeae FA1090. N. gonorrhoeae burden (average±standard deviation log 10 CFU/mL) after treatment with a single dose of ravuconazole (40 mg/kg) (fosravuconazole/E-1224 Prodrug) via oral gavage. As a negative control, mice (n=8) were administered the vehicle (water), As a positive control, a group of mice received a single intraperitoneal dose of ceftriaxone (15 mg/kg in water). Vaginal swabs were collected daily and cultured to determine the number of viable bacteria. The limit of detection was 10 CFU/mL. The data were analyzed via a two-way ANOVA followed by Dunnett's test for multiple comparisons. Asterisks indicate a statistical significant difference between mice treated with either ravuconazole or ceftriaxone as compared to the vehicle-treated mice.
FIG. 2A-2C—Efficacy of Ravuconazole one oral dose in a mouse model against drug-resistant strains. […] N. gonorrhoeae burden (average±standard deviation log 10 CFU/mL) after treatment with a single dose of ravuconazole (160 mg/kg) (fosravuconazole/E-1224 Prodrug) via oral gavage. […] The data were analyzed via a two-way ANOVA followed by Dunnett's test for multiple comparisons. […]
FIG. 3—Efficacy of 3 doses of isavuconazole against the vaginal burden of N. gonorrhoeae. […] The data were analyzed via a two-way ANOVA followed by Dunnett's test for multiple comparisons. […]

[17] = tested on: N. meingitidis; assay: MIC against Neisseria spp.; assay type: cell-based, Neisseria meningitidis; conditions: N. meingitidis (5 strains)
[18] = Table 1, 104 N. gonorrhoeae isolates
[19] = Table 3, 103 N. gonorrhoeae isolates with different resistance profiles

C[C@@H](c1nc(-c2ccc(C#N)cc2)cs1)[C@](O)(Cn1cncn1)c1cc(F)ccc1F [Isavuconazole]
screening outcome [1]: Positive hits | MIC50 [2, 18]: 0.5 µg/mL (≈ 1.14 µM) | MIC90 [2, 18]: 1 µg/mL (≈ 2.29 µM) | MIC50 [2, 19]: 0.5 µg/mL (≈ 1.14 µM) | MIC90 [2, 19]: 1 µg/mL (≈ 2.29 µM) | MIC Range [2, 18]: 0.015 to 2 µg/mL | MIC Range [2, 19]: 0.015 to 4 µg/mL | MIC ([3]; L. gasseri HM-407): > 256 µg/mL | MIC ([3]; L. gasseri HM-642): > 256 µg/mL | MIC ([3]; L. gasseri HM-644): > 256 µg/mL | MIC ([3]; L. gasseri HM-647): > 256 µg/mL | MIC Range ([3]; Table 6, L. gasseri (4 strains)): ≥256 µg/mL | MIC Range [4]: >256 µg/mL | MIC Range [5]: >256 µg/mL | MIC Range [6]: >256 µg/mL | MIC Range [7]: >256 µg/mL | MIC Range [8]: >256 µg/mL | MIC Range [9]: >256 µg/mL | MIC Range [10]: >256 µg/mL | MIC Range [11]: >256 µg/mL | MIC Range ([12]; Bacteroides adolescentis (2 strains)): >256 µg/mL | MIC Range ([12]; Bacteroides breve (2 strains)): >256 µg/mL | MIC Range ([12]; Bacteroides longum (2 strains)): >256 µg/mL | MIC Range [13]: >256 µg/mL | MIC Range [14]: >256 µg/mL | MIC ([15]; L. crispatus HM-103): > 256 µg/mL | MIC ([15]; L. crispatus HM-371): > 256 µg/mL | MIC ([15]; L. crispatus HM-638): > 256 µg/mL | MIC Range ([15]; Table 6, L. crispatus (3 strains)): ≥256 µg/mL | infected mice in which the infection was cleared ([16]; second day): 50% | infected mice in which the infection was cleared ([16]; third day of treatment): 100% | MIC Range [17]: 0.25 to 0.5 µg/mL

— patent US20250281464A1, “TREATMENT OF PATHOGENIC NEISSERIA SP. INFECTION WITH TRIAZOLE ANTIFUNGAL AGENTS” (Virginia Tech Intellectual Properties, Inc., priority 2022, published 2025)
